Data from patent US7696201B2, “Modulators of muscarinic receptors” (Vertex Pharmaceuticals Incorporated, priority 2006, dated 2010).

How the values were obtained:
Type in all cases: cell-based
M4 muscarinic receptor = molecular target: T1, M4 muscarinic receptor (Homo sapiens, UniProt P08173); assay: Functional mobilization of intracellular calcium (FLIPR), M4-CHO cells; conditions: for Emax: 100% efficacy is the maximum response obtained with the Carbachol control; for M4 Activity: CHO cells expressing M4, calcium mobilization
T1 construct: expressed in transfected cells; host or cells: CHO (M4-CHO)
T1 sequence (P08173 1-479): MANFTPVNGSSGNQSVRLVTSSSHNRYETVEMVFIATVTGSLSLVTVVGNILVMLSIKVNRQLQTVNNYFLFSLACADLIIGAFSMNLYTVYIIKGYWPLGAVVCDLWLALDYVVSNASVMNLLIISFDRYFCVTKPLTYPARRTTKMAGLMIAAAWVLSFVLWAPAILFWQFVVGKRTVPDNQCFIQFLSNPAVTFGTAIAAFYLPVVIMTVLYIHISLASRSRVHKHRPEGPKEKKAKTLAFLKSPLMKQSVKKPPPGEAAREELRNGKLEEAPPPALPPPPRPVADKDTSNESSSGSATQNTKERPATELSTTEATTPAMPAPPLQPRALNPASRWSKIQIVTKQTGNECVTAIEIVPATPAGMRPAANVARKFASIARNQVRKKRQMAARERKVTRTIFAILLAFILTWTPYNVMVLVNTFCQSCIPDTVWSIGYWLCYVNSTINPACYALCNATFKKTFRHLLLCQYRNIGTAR
Procedure: (§1) Functional Mobilization of Intracellular Calcium to Determine Muscarinic Receptor Activity:
(§2) CHO cells expressing muscarinic receptors (M1 to M5) are grown as monolayers in tissue culture flasks at 37° C. in a humidified atmosphere containing 5% CO2 and passaged every 3-5 days. The growth media is Dulbecco's modified eagles medium (DMEM, Gibco Cat# 12430-054), containing 25 mM Hepes and supplemented with Fetal Bovine Serum (Hyclone, cat# SH30071.03), 0.1 mM of MEM non-essential amino acids (GIBCO, Cat# 11140-050), 1 mM MEM Sodium Pyruvate (GIBCO Cat# 11360-070) and 100 units/ml of Penicillin G and 100 μg/ml of Streptomycin (GIBCO Cat# 15140-122). The recombinant muscarinic receptor cell lines are grown under antibiotic pressure with media containing 25 μg/ml zeocin and 500 μg/ml G418 (M1-CHO), 4 μg/ml puromycin, 50 μg/ml zeocin and 2.5 μg/ml blasticidin (M2 and M4-CHO) or 50 μg/ml zeocin and 4 μg/ml puromycin (M3 and M5-CHO).
(§3) Cells are harvested at 80-90% confluence using Versene (GIBCO Cat# 15040-066), collected by centrifugation and seeded 18-24 hours prior to running the calcium assay at a density of 5,000-10,000 cells/well in […], clear-bottomed 384-well plates (BD Biocoat, poly-D-lysine, Cat#356663). The day of the experiment, the cells are washed with a plate washer (Bioteck Instruments, ELX 405) using Bath 1 buffer (140-mM NaCl, 4.5-mM KCl, 2-mM CaCl2, 1-mM MgCl2, 10-mM Hepes-Na, 10-mM Glucose, pH 7.4, with NaOH) containing 1 mM Probenecid. Next, the calcium dye Fluo-3 (25 μl/well of Fluo-3 AM at 4 μM, Molecular Probes F-1241, in Bath 1 buffer containing 1 mM Probenecid) is added to the 25 μl of Bath 1 remaining in each well after the plate wash and the dye is loaded at 37° C. in the tissue culture incubator for 60-90 min. The fluorescent dye is removed using the plate washer with Bath 1 containing 1 mM Probenecid, leaving 25 μl/well of this solution after the wash. Alternatively, cells can be loaded with the calcium indicator from Molecular Devices (Calcium 3 Assay Reagents, Cat # R7181) adding 5 μl of a 5× solution dye in Bath 1 containing 1 mM Probenecid (10 ml per dye flask cat# R7182 to generate a solution 20×) to 20 μl of the same buffer. After loading for 60 min, the experiment can be run without having to remove the dye.
(§4) Compounds are prepared at a 2× fold concentration in a 96-well plate (round bottom, Costar Corning cat# 3656), by reconstituting the pre-spotted compounds in bath 1 containing 1 mM probenecid. The final concentration DMSO is 0.5%, and the amount of DMSO is normalized across the assay plate. To determine an agonist action of the compounds on muscarinic receptors, the reconstituted compounds are added (25 μl compound/well) to the cell assay plate (containing 25 μl/well) using the multi-channel robotic system of the FLIPR 3 Instrument (Molecular Devices, Sunnyvale, Calif.). To determine a functional inhibitory action of the compounds on muscarinic receptors, the reconstituted compounds are added (25 μl compound/well) to the assay plate and pre-incubated for 15 min prior to adding 25 μl of Carbachol at 3× the EC80 for each muscarinic subtype. Alternatively, the compounds can be co-applied simultaneously with the agonist. In both assay modes, the fluorescence is recorded for 60 sec (excitation wavelength is […] and emission wavelength 540 nm) using the FLIPR 3 instrument.
(§5) The potency, efficacy and selectivity of the muscarinic compounds were evaluated by screening the compound activity across the whole family (M1 to M5 cells). Compounds were also screened for activity on other proteins such as other GPCRs and ion channels to determine selectivity on M4 receptors.
(§6) Examples of activities and efficacies of the muscarinic compounds of formulae (I, Ia, Ib, Ic, and Id) on modulating M1 and M4 receptors are shown below in Table 3. […]

M1 muscarinic receptor = molecular target: T2, M1 muscarinic receptor (Homo sapiens, UniProt P11229); assay: Functional mobilization of intracellular calcium (FLIPR), M1-CHO cells; conditions: for Emax: 100% efficacy is the maximum response obtained with the Carbachol control; for M1 Activity: CHO cells expressing M1, calcium mobilization
T2 construct: expressed in transfected cells; host or cells: CHO (M1-CHO)
T2 sequence (P11229 1-460): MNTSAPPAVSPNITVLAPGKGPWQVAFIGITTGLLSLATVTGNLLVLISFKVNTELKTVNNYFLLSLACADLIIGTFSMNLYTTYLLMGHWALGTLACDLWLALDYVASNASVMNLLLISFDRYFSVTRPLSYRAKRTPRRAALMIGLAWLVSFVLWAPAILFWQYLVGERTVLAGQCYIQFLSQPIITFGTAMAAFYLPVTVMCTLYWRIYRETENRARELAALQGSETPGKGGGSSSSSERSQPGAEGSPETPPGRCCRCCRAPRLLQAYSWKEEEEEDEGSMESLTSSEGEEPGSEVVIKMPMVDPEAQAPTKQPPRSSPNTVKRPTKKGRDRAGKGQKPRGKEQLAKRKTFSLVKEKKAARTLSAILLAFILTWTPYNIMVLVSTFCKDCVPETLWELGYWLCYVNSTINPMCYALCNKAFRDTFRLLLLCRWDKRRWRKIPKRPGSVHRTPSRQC
Procedure: as §1, §2, §3, §4, §5, §6

M3 muscarinic receptor = molecular target: T3, M3 muscarinic receptor (Homo sapiens, UniProt P20309); assay: Functional mobilization of intracellular calcium (FLIPR), M3-CHO cells; conditions: for Emax: 100% efficacy is the maximum response obtained with the Carbachol control; for M3 Activity: CHO cells expressing M3, calcium mobilization
T3 construct: expressed in transfected cells; host or cells: CHO (M3-CHO)
Procedure: as §1, §2, §3, §4, §5, §6

M2 muscarinic receptor = molecular target: T4, M2 muscarinic receptor (Homo sapiens, UniProt P08172); assay: Functional mobilization of intracellular calcium (FLIPR), M2-CHO cells; conditions: for Emax: 100% efficacy is the maximum response obtained with the Carbachol control; for M2 Activity: CHO cells expressing M2, calcium mobilization
T4 construct: expressed in transfected cells; host or cells: CHO (M2-CHO)
T4 sequence (P08172 1-466): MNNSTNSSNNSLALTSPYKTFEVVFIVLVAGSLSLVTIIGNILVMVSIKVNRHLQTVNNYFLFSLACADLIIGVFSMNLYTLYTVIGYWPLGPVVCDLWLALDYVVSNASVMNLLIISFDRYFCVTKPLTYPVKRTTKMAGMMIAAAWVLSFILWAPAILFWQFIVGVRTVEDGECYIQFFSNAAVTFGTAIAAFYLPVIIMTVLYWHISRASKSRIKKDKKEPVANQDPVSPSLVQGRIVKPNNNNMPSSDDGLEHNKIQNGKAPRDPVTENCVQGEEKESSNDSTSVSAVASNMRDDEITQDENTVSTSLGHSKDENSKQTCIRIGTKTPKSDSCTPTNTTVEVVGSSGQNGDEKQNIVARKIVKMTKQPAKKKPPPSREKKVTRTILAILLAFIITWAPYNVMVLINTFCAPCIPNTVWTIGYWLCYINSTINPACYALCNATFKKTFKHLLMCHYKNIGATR
Procedure: as §1, §2, §3, §4, §5, §6

T3 sequence (P20309 whole entry): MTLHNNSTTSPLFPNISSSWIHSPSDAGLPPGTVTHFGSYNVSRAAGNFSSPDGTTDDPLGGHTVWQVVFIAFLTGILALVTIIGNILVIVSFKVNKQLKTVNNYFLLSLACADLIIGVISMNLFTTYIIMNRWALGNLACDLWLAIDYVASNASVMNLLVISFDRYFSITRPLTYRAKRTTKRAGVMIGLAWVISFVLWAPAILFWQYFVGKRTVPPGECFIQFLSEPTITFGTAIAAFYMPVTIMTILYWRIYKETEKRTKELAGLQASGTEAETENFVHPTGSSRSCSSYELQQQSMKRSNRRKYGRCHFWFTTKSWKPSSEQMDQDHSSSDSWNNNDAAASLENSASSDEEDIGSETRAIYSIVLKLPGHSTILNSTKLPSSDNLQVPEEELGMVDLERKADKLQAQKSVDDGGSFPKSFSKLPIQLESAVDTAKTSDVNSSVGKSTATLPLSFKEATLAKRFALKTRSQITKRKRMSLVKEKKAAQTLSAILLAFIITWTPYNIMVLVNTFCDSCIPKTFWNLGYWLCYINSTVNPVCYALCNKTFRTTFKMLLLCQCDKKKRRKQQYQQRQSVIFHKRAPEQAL

SMILES	Emax (M4 muscarinic receptor) [%]	M4 Activity (M4 muscarinic receptor)	Emax (M1 muscarinic receptor) [%]	M1 Activity (M1 muscarinic receptor)	Emax (M3 muscarinic receptor) [%]	M3 Activity (M3 muscarinic receptor)	Emax (M2 muscarinic receptor) [%]	M2 Activity (M2 muscarinic receptor)
O=C1Nc2ccccc2C2(CCN(C3CCNCC3)CC2)O1 [Compound 49, 1′-(piperidin-4-yl)spiro[benzo[d][1,3]oxazine-4,4′-piperidin]-2(1H)-one]	< 25	+ (activity was measured to be greater than 5.0 μM)	25 to 100	+ (activity was measured to be greater than 5.0 μM)	< 25	+ (activity was measured to be greater than 5.0 μM)	< 25	+ (activity was measured to be greater than 5.0 μM)
CCON=C1CCC(N2CCC3(CC2)OC(=O)Nc2ccccc23)CC1 (centres unmarked) [Compound 3, 1′-(4-(ethoxyimino)cyclohexyl)spiro[benzo[d][1,3]oxazine-4,4′-piperidin]-2(1H)-one]	25 to 100	+++ (activity was measured to be less than 2.0 μM)	25 to 100	+++ (activity was measured to be less than 2.0 μM)	25 to 100	+++ (activity was measured to be less than 2.0 μM)	25 to 100	+++ (activity was measured to be less than 2.0 μM)
CCOC(=O)N1CCC(CN2CCC3(CC2)OC(=O)Nc2ccccc23)CC1 [Compound 13, ethyl-4-((2-oxo-1,2-dihydrospiro[benzo[d][1,3]oxazine-4,4′-piperidine]-1′-yl)methyl)piperidine-1-carboxylate]	25 to 100	+++ (activity was measured to be less than 2.0 μM)	25 to 100	+++ (activity was measured to be less than 2.0 μM)	25 to 100	+++ (activity was measured to be less than 2.0 μM)	25 to 100	+++ (activity was measured to be less than 2.0 μM)
CCOC(=O)N1CCC(N2CCC3(CC2)OC(=O)Nc2ccccc23)CC1 [Compound 62]	25 to 100	+++ (activity was measured to be less than 2.0 μM)	25 to 100	+++ (activity was measured to be less than 2.0 μM)	25 to 100	+++ (activity was measured to be less than 2.0 μM)	25 to 100	+++ (activity was measured to be less than 2.0 μM)
